Measurements: patent publication US10696692B2, “Amido-benzyl sulfone and sulfoxide derivates” (Forma TM, LLC, priority 2012, dated 2020)

Columns and labels:
A2780 cells = assay: Assay 2: In-Vitro Cell Proliferation Assay (A2780 cells, SRB readout, 72 hours); format: cell-based; settings: Homo sapiens, A2780, 72 h, A2780 cells, 72 hours, SRB; read-out: Cell Proliferation (IC50);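 note: viable cells counted via sulforhodamine B staining, absorbance at 570 nm, after 72 h exposure at 37 °C, DMSO 0.1% as control, media-only background subtracted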
NAMPT = NAMPT (Homo sapiens (Human), UniProt P43490); assay: Assay 1: Biochemical Inhibition Assay (NAMPT enzymatic reaction, NMN quantified by mass spectrometry); settings: read-out: Biochemical (IC50);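 note: recombinant His-tagged human NAMPT preincubated with compound 15 min, then reacted 30 min at rt with 1 µM NAM, 100 µM PRPP, 2.5 mM ATP, NMN product read by RapidFire MS, normalized to L-Cystathionine internal standard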
Chain of NAMPT (P43490 whole entry): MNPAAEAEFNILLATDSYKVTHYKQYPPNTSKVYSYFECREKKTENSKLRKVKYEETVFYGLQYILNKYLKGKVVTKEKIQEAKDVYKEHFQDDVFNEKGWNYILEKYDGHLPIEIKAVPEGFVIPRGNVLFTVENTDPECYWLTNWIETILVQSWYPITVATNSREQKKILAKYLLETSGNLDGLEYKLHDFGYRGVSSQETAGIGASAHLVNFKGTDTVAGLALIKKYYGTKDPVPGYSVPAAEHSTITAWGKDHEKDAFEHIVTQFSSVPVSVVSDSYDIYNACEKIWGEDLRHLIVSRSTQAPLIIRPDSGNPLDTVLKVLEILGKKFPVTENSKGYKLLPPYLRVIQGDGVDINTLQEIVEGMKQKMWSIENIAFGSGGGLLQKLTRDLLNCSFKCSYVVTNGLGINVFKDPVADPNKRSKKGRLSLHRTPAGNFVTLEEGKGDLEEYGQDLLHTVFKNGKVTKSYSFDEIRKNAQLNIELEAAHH

Row | Structure (SMILES) | IC50 (A2780 cells) | IC50 (NAMPT)
1 | O=C(NCc1ccc(S(=O)(=O)N2CCC[C@@H]2CO)cc1)c1ccc2nccn2c1 [Example 106, Imidazo[1,2-a]pyridine-6-carboxylic acid 4-((R)-2-hydroxymethyl-pyrrolidine-1-sulfonyl)-benzylamide] | 57.7 nM | 48.6 nM
2 | O=C(NCc1ccc(S(=O)(=O)N2CCC[C@H]2CO)cc1)c1ccc2nccn2c1 [Example 107, Imidazo[1,2-a]pyridine-6-carboxylic acid 4-((S)-2-hydroxymethyl-pyrrolidine-1-sulfonyl)-benzylamide] | 15.4 nM | 23.7 nM
3 | CN(C)[C@H]1CCN(S(=O)(=O)c2ccc(CNC(=O)c3ccc4nccn4c3)cc2)C1 [Example 108, Imidazo[1,2-a]pyridine-6-carboxylic acid 4-((S)-3-dimethylamino-pyrrolidine-1-sulfonyl)-benzylamide] | 5.3 nM | 25.6 nM
4 | CN1CCN(C(=O)C2CCN(S(=O)(=O)c3ccc(CNC(=O)c4ccc5nccn5c4)cc3)CC2)CC1 [Example 109, Imidazo[1,2-a]pyridine-6-carboxylic acid 4-[4-(4-methyl-piperazine-1-carbonyl)-piperidine-1-sulfonyl]-benzylamide] | 3.9 nM | 2.7 nM
5 | O=C(NCc1ccc(S(=O)(=O)N2CCC(F)(F)CC2)cc1)c1ccc2nccn2c1 [Example 112, Imidazo[1,2-a]pyridine-6-carboxylic acid 4-(4,4-difluoro-piperidine-1-sulfonyl)-benzylamide] | 20.5 nM | 25.9 nM
6 | CC(=O)N1CCC(S(=O)(=O)c2ccc(CNC(=O)c3cc4cnccc4[nH]3)cc2)CC1 [Example 113, 1H-Pyrrolo[3,2-c]pyridine-2-carboxylic acid 4-(1-acetyl-piperidine-4-sulfonyl)-benzylamide] | 44.6 nM | 64.2 nM
7 | CC(C)(C)OC(=O)N1CCC2(CC1)CCN(S(=O)(=O)c1ccc(CNC(=O)c3ccc4nccn4c3)cc1)CC2 [Example 121, 9-(4-{[(Imidazo[1,2-a]pyridine-6-carbonyl)-amino]-methyl}-benzenesulfonyl)-3,9-diaza-spiro[5.5]undecane-3-carboxylic acid tert-butyl ester] | 1.1 nM | 5.8 nM
8 | CC(C)(C)OC(=O)N1CCCC2(CCN(S(=O)(=O)c3ccc(CNC(=O)c4ccc5nccn5c4)cc3)CC2)C1 [Example 122, 9-(4-{[(Imidazo[1,2-a]pyridine-6-carbonyl)-amino]-methyl}-benzenesulfonyl)-2,9-diaza-spiro[5.5]undecane-2-carboxylic acid tert-butyl ester] | 2.6 nM | 25.5 nM
9 | CC(C)(C)OC(=O)N1CCC2(CC1)CN(S(=O)(=O)c1ccc(CNC(=O)c3ccc4nccn4c3)cc1)CCO2 [Example 124, 4-(4-{[(Imidazo[1,2-a]pyridine-6-carbonyl)-amino]-methyl}-benzenesulfonyl)-1-oxa-4,9-diaza-spiro[5.5]undecane-9-carboxylic acid tert-butyl ester] | 4.65 nM | 40.5 nM
10 | CC(C)(C)OC(=O)N1CCCC12CCN(S(=O)(=O)c1ccc(CNC(=O)c3ccc4nccn4c3)cc1)CC2 [Example 125, 8-(4-{[(Imidazo[1,2-a]pyridine-6-carbonyl)-amino]-methyl}-benzenesulfonyl)-1,8-diaza-spiro[4.5]decane-1-carboxylic acid tert-butyl ester] | 1.37 nM | 11.2 nM
11 | CC(C)(C)OC(=O)NC1CC2(CCN(S(=O)(=O)c3ccc(CNC(=O)c4ccc5nccn5c4)cc3)CC2)C1 [Example 127] | 2.77 nM | 14.5 nM
12 | CC(C)(C)OC(=O)NCC12CC(CN1S(=O)(=O)c1ccc(CNC(=O)c3ccc4nccn4c3)cc1)C2 [Example 129, [2-(4-{[(Imidazo[1,2-a]pyridine-6-carbonyl)-amino]-methyl}-benzenesulfonyl)-2-aza-bicyclo[2.1.1]hex-1-ylmethyl]-carbamic acid tert-butyl ester] | 8.75 nM | 34 nM
13 | CC(C)(C)OC(=O)N1CCC2(CCCN(S(=O)(=O)c3ccc(CNC(=O)c4ccc5nccn5c4)cc3)C2)CC1 [Example 131, 2-(4-{[(Imidazo[1,2-a]pyridine-6-carbonyl)-amino]-methyl}-benzenesulfonyl)-2,9-diaza-spiro[5.5]undecane-9-carboxylic acid tert-butyl ester] | 5.8 nM | 40.4 nM
14 | O=C(NCc1ccc(S(=O)(=O)N2CC3COCC(C2)C3O)cc1)c1ccc2nccn2c1 (stereo not shown) [Example 138, Imidazo[1,2-a]pyridine-6-carboxylic acid 4-(9-hydroxy-3-oxa-7-aza-bicyclo[3.3.1]nonane-7-sulfonyl)-benzylamide] | 24.9 nM | 28.8 nM
15 | CC1(O)CCN(S(=O)(=O)c2ccc(CNC(=O)c3ccc4nccn4c3)cc2)CC1 [Example 145, Imidazo[1,2-a]pyridine-6-carboxylic acid 4-(4-hydroxy-4-methyl-piperidine-1-sulfonyl)-benzylamide] | 12.5 nM | 28.4 nM
16 | O=C(NCc1ccc(S(=O)(=O)N2CCC3OCCC3C2)cc1)c1ccc2nccn2c1 (stereo not shown) [Example 146, Imidazo[1,2-a]pyridine-6-carboxylic acid 4-(hexahydro-furo[3,2-c]pyridine-5-sulfonyl)-benzylamide] | 3.1 nM | 12.7 nM
17 | O=C(NCc1ccc(S(=O)(=O)N2C[C@H]3C[C@@H]2C3)cc1)c1ccc2nccn2c1 [Example 159, Imidazo[1,2-a]pyridine-6-carboxylic acid 4-(2-aza-bicyclo[2.1.1]hexane-2-sulfonyl)-benzylamide] | 13.3 nM | 12 nM
18 | O=C(NCc1ccc(S(=O)(=O)N2CC3CC3C2)cc1)c1ccc2nccn2c1 (stereo not shown) [Example 160, Imidazo[1,2-a]pyridine-6-carboxylic acid 4-(3-aza-bicyclo[3.1.0]hexane-3-sulfonyl)-benzylamide] | 15.3 nM | 4.7 nM

Further lines, results first:

Row | IC50 (A2780 cells) | IC50 (NAMPT) | Structure (SMILES)
19 | 9 nM | 6.8 nM | CN(C)CCN1CCN(S(=O)(=O)c2ccc(CNC(=O)c3ccc4nccn4c3)cc2)CC1 [Example 105, Imidazo[1,2-a]pyridine-6-carboxylic acid 4-[4-(2-dimethylamino-ethyl)-piperazine-1-sulfonyl]-benzylamide]
20 | 3.3 nM | 3.1 nM | CN1CCN(C2CCN(S(=O)(=O)c3ccc(CNC(=O)c4ccc5nccn5c4)cc3)CC2)CC1 [Example 110, Imidazo[1,2-a]pyridine-6-carboxylic acid 4-[4-(4-methyl-piperazin-1-yl)-piperidine-1-sulfonyl]-benzylamide]
21 | 5.6 nM | 19.4 nM | O=C(NCc1ccc(S(=O)(=O)C2CCN(C3COC3)CC2)cc1)c1ccc2nccn2c1 [Example 114, Imidazo[1,2-a]pyridine-6-carboxylic acid 4-(l-oxetan-3-yl-piperidine-4-sulfonyl)-benzylamide]
22 | 11.5 nM | 37.3 nM | O=C(NCc1ccc(S(=O)(=O)C2CCN(C3COC3)CC2)cc1)c1cc2cnccc2[nH]1 [Example 115, 1H-Pyrrolo[3,2-c]pyridine-2-carboxylic acid 4-(1-oxetan-3-yl-piperidine-4-sulfonyl)-benzylamide]
23 | 44.5 nM | 229 nM | O=C(NCc1ccc(S(=O)(=O)N2CCN(C3COC3)CC2)cc1)c1cnc2[nH]ncc2c1 [Example 117, 1H-Pyrazolo[3,4-b]pyridine-5-carboxylic acid 4-(4-oxetan-3-yl-piperazine-1-sulfonyl)-benzylamide]
24 | 121 nM | 4.1 nM | O=C(NCc1ccc(S(=O)(=O)C2CCN(C3COC3)CC2)cc1)c1cnc2nccn2c1 [Example 118, Imidazo[1,2-a]pyrimidine-6-carboxylic acid 4-(1-oxetan-3-yl-piperidine-4-sulfonyl)-benzylamide]
25 | 352 nM | 4.4 nM | O=C(NCc1ccc(S(=O)(=O)N2CCN(C3COC3)CC2)cc1)c1cnc2nccn2c1 [Example 119, Imidazo[1,2-a]pyrimidine-6-carboxylic acid 4-(4-oxetan-3-yl-piperazine-1-sulfonyl)-benzylamide]
26 | 1.5 nM | 4.3 nM | O=C(NCc1ccc(S(=O)(=O)C2CCN(C3COC3)CC2)cc1)c1cc2ccncc2s1 [Example 120, Thieno[2,3-c]pyridine-2-carboxylic acid 4-(1-oxetan-3-yl-piperidine-4-sulfonyl)-benzylamide]
27 | 45.8 nM | 31.5 nM | O=C(NCc1ccc(S(=O)(=O)N2CCC[C@H](O)C2)cc1)c1cc2ccncc2o1 [Example 150, Furo[2,3-c]pyridine-2-carboxylic acid 4-((S)-3-hydroxy-piperidine-1-sulfonyl)-benzylamide]
28 | 45 nM | 27.4 nM | O=C(NCc1ccc(S(=O)(=O)N2CCC[C@@H](O)C2)cc1)c1cc2ccncc2o1 [Example 151, Furo[2,3-c]pyridine-2-carboxylic acid 4-((R)-3-hydroxy-piperidine-1-sulfonyl)-benzylamide]
29 | 30.5 nM | 32.1 nM | O=C(NCc1ccc(S(=O)(=O)N2CCC3(CCNC3)CC2)cc1)c1ccc2nccn2c1 [Example 152, Imidazo[1,2-a]pyridine-6-carboxylic acid 4-(2,8-diaza-spiro[4.5]decane-8-sulfonyl)-benzylamide]
30 | 48.9 nM | 16.5 nM | O=C(NCc1ccc(S(=O)(=O)N2CC3COCC3C2)cc1)c1cc2ccncc2o1 (stereo not shown) [Example 153, Furo[2,3-c]pyridine-2-carboxylic acid 4-(tetrahydro-furo[3,4-c]pyrrole-5-sulfonyl)-benzylamide]
31 | 14.9 nM | 17.9 nM | O=C(NCc1ccc(S(=O)(=O)N2CCC(N3CCCC3)CC2)cc1)c1cc2ccncc2o1 [Example 157, Furo[2,3-c]pyridine-2-carboxylic acid 4-(4-pyrrolidin-1-yl-piperidine-1-sulfonyl)-benzylamide]
32 | 11.9 nM | 30.4 nM | O=C(NCc1ccc(S(=O)(=O)N2CCN(C3CCOCC3)CC2)cc1)c1cc2ccncc2o1 [Example 170, Furo[2,3-c]pyridine-2-carboxylic acid 4-[4-(tetrahydro-pyran-4-yl)-piperazine-1-sulfonyl]-benzylamide]
